Here are results for one compound from patent publication US12458621B1, “Application of genipin beta-methyl derivative gen-17 in preparation of drug for prevention and treatment of acute severe pneumonia” (KUNMING MEDICAL UNIVERSITY, priority 2024, dated 2025).

Format in all cases: in vivo, Kunming mice
For assay [1], the system named is Nrf2. Briefly: Nrf2 protein in lung tissue by WB. On the procedure:
The dosage is converted according to the weight of the mice, and the gavage volume is 20 milliliters per kilogram (mL/kg), and the gavage is continued for 3 days. One hour after the gavage on the third day, the ALI model is established by tracheal instillation of LPS solution. […] After the mice are awake, they are raised as usual. 2.3 Treatment of Experimental Animals and Collection of Lung Tissue Specimens
(§1) Samples are collected 24 hours after the animal model is established. The mice are weighed and 12 mice in each group are sacrificed. Lung tissues are collected and the whole lung wet weight is measured. […] After tidying, the lungs are photographed, excess tissues such as the trachea are cleared away, and the wet weight of the whole lung is measured to calculate the lung index. • (3) The upper lobe of the left lung is fixed in 4% neutral paraformaldehyde, fixed for 24 hours, paraffin-embedded and sectioned for HE staining. • (4) The remaining lung tissues are put into centrifugal tubes separately, quickly frozen in liquid nitrogen, and then stored at −80° C. after the experiment, which is used for the detection of MDA, SOD, western blotting (WB) and reverse transcription polymerase chain reaction (RT-PCR). […]
(§2) The lung tissue is taken out from −80° C., and its weight is accurately measured. […]

Assay [2] relates to TNF-α. The assay can be described thus: TNF-α mRNA in lung tissue by qRT-PCR. As for the experimental part: (§3) A total of 144 SPF-grade healthy Kunming mice, aged 5-7 weeks and weighing 18-22 g, are weighed and randomly allocated into six experimental groups: control group (NS), model group (LPS), dexamethasone group (DEX, […] per kilogram abbreviated as mg/kg), genipin beta-methyl derivative low-dose group (12.5 mg/kg), genipin beta-methyl derivative medium-dose group (25 mg/kg), and genipin beta-methyl derivative high-dose group (50 mg/kg), 24 animals per group, in which 12 animals are used to take lung tissue for the detection of other indicators, and another 12 animals are used to collect BALF. […]
as §1, with “The mice are weighed and 12 mice in each group are sacrificed.” left out
(Quantitative PCR measures a nucleic acid by following its amplification.)

Assay [3] relates to Keap1. The assay can be described thus: Keap1 gene expression in lung tissue by qRT-PCR. On the procedure:
as §3
as §1, with “The mice are weighed and 12 mice in each group are sacrificed.” left out

Assay [4] concerns iNOS. Briefly: iNOS mRNA in lung tissue by qRT-PCR. The conditions noted are these: Gen-17 (12.5, 25, 50 mg/kg gavage) compared with LPS group (P<0.001). As for the experimental part: as §3
as §1, with “The mice are weighed and 12 mice in each group are sacrificed.” left out

Assay [5] relates to LPS-induced ALI mice. The assay can be described thus: Lung index (lung wet weight/body weight), LPS-induced ALI mice. As for the experimental part:
(§4) A total of 144 SPF-grade healthy Kunming mice, aged 5-7 weeks and weighing 18-22 g, are weighed and randomly allocated into six experimental groups: control group (NS), model group (LPS), dexamethasone group (DEX, […] per kilogram abbreviated as mg/kg), genipin beta-methyl derivative low-dose group (12.5 mg/kg), genipin beta-methyl derivative medium-dose group (25 mg/kg), and genipin beta-methyl derivative high-dose group (50 mg/kg), 24 animals per group, in which 12 animals are used to take lung tissue for the detection of other indicators, and another 12 animals are used to collect BALF.
All mice are gavaged with a same volume of 0.9% normal saline once a day in the NS group and the LPS group, DEX solution (0.39 mg/kg) is gavaged once a day in the DEX group, low-dose Gen-17 solution (12.5 mg/kg) is gavaged once a day in the medium-dose Gen-17 group, medium-dose Gen-17 solution (25 mg/kg) is gavaged once a day in the high-dose Gen-17 group, and high-dose Gen-17 solution (50 mg/kg) is gavaged once a day in the high-dose Gen-17 group. The dosage is converted according to the weight of the mice, and the gavage volume is 20 milliliters per kilogram (mL/kg), and the gavage is continued for 3 days. One hour after the gavage on the third day, the ALI model is established by tracheal instillation of LPS solution. The specific experimental procedures are as follows. • (1) Before the operation, the mice are anesthetized by intraperitoneal injection of 1% sodium pentobarbital (30 mg/kg) according to their body weight. • (2) Limbs of anesthetized mice are fixed with rubber bands, teeth are wired with thin threads, and neck skin is disinfected with 75% alcohol. • (3) A subcutaneous tissue is separated along a longitudinal incision in a middle of the mouse neck until a cartilage ring appeared in an exposed trachea. • (4) A microinjector is inserted into the trachea in parallel towards a proximal end for about 1 centimeter (cm). Sterile NS is slowly dripped into the trachea of the control group, and LPS is dripped into the trachea of the other groups. • (5) After pulling out the microinjector, the mice are upright immediately, rotated and shaken evenly for 2 minutes (min), then the neck wound is sutured, and the state of the mice is observed. After the mice are awake, they are raised as usual. 2.3 Treatment of Experimental Animals and Collection of Lung Tissue Specimens
as §1, with “measured. The lung tissues are packaged for hematoxylin and eosin (HE) staining, MDA and SOD content determination, gene and protein detection.” for “measured.”

Assay [6] concerns JNK phosphorylated protein. Briefly: JNK phosphorylated protein in lung tissue by WB. On the procedure: as §3
as §1, with “The mice are weighed and 12 mice in each group are sacrificed.” left out

Assay [7] concerns p38 phosphorylated protein. The assay can be described thus: p38 phosphorylated protein in lung tissue by WB. On the procedure:
as §4
All mice are gavaged with a same volume of 0.9% normal saline once a day in the NS group and the LPS group, DEX solution (0.39 mg/kg) is gavaged once a day in the DEX group, low-dose Gen-17 solution (12.5 mg/kg) is gavaged once a day in the medium-dose Gen-17 group, medium-dose Gen-17 solution (25 mg/kg) is gavaged once a day in the high-dose Gen-17 group, and high-dose Gen-17 solution (50 mg/kg) is gavaged once a day in the high-dose Gen-17 group. The dosage is converted according to the weight of the mice, and the gavage volume is 20 milliliters per kilogram (mL/kg), and the gavage is continued for 3 days. […]
as §1, with “The mice are weighed and 12 mice in each group are sacrificed.” left out
as §2

Setting [8] is: Gen-17 12.5, 25, 50 mg/kg gavage, ALI mice.
Setting [9] is: Gen-17 groups (12.5, 25, 50 mg/kg gavage) compared with NS group.
Where [10] appears, read: after drug treatment, compared with LPS group.

Turning to `COC(=O)C1=CO[C@@H](OC)[C@@H]2C(COC(=O)c3cccc(Br)c3)=CC[C@H]12` [Gen-17, genipin beta-methyl derivative], the “expression of Nrf2 protein in lung tissue, overall result” value in assay [1] (setting [8]) is “upregulate the expression of Nrf2 and HO-1 protein”. Besides, the “expression of Nrf2 protein in lung tissue (increase)” value in assay [1] (medium-dose Gen-17 25 mg/kg gavage, compared with LPS group (P<0.05)) was “statistically significant”. For the same compound, the “mRNA expression of TNF-α in lung tissue” value in assay [2] (Gen-17 (12.5, 25, 50 mg/kg gavage) compared with LPS group (P<0.001)) is “significantly reduce the expression”; in assay [2] (low-dose Gen-17 12.5 mg/kg gavage, compared with DEX group (P<0.001)), “statistical significance”. For the same compound, the “expression of Keap1 gene in lung tissue” value in assay [3] (Gen-17 groups (12.5, 25, 50 mg/kg gavage) compared with DEX group (P<0.001)) is reported as “significantly increased”; in assay [3] (setting [9]) it was “significantly increased (P<0.001)”. Further, in assay [4], the “mRNA expression of iNOS in lung tissue” value is given as “significantly reduce the expression”. Further, the “degree of pulmonary edema (lung index), overall result” value in assay [5] (setting [8]) was “reduce the degree of pulmonary edema in ALI mice to varying degrees”. Further, the lung index entry is “statistically significant (P<0.05)” in assay [5] (setting [9]); “statistically significant (P<0.01)” in assay [5] (high-dose Gen-17 50 mg/kg gavage, compared with LPS group); “increases most significantly” in assay [5] (low-dose Gen-17 12.5 mg/kg gavage, compared with DEX group (P<0.05)); “statistically significant (P<0.01)” in assay [5] (medium-dose Gen-17 25 mg/kg gavage, compared with LPS group). For the same compound, the “expression of JNK phosphorylated protein in lung tissue” value in assay [6] (setting [10]) is “down-regulate the expression of p38, ERK and JNK proteins”; in assay [6] (low-dose Gen-17 12.5 mg/kg gavage, compared with DEX group), “statistically significant (P<0.05)”. In assay [7] (Gen-17 groups (12.5, 25, 50 mg/kg gavage) compared with DEX group (P>0.05)), the “expression of phosphorylated protein p38 in lung tissue” value is on record as “no statistically significant change”. The “expression of p38 phosphorylated protein in lung tissue” value in assay [7] (setting [10]) is “down-regulate the expression of p38, ERK and JNK proteins”. For the same compound, the “expression of p38 phosphorylated protein in lung tissue, statistical significance of decrease” value in assay [7] (low-dose Gen-17 12.5 mg/kg gavage, compared with LPS group, excepted from significance (P<0.05)) is “except for the low-dose Gen-17 group”.
